“Also recorded” adds a separate entry of the source.
The molecules below were run on sunflower NCE gene expression (assay: Northern blot analysis of NCE gene transcript levels under different chemical treatments). Conditions: six-week-old SMF3 sunflower plants sprayed with 5 mM oxalic acid, 5 mM H2O2, 5 mM salicylic acid or 45 μM jasmonic acid (0.1% ethanol); leaf samples at 0, 6, 12, 24 hours.
Type: in vivo
Protocol: FIG. 4 depicts the results of a Northern blot analysis of NCE gene transcript levels under different chemical treatments. Six-week-old sunflower plants were sprayed with oxalic acid (OA) (5 mM), H2O2 (5 mM), salicylic acid (SA) (5 mM), and jasmonic acid (JA) (45 μM in 0.1% ethanol). The leaf samples were collected at 0, 6, 12, and 24 hours after the applications and immediately frozen in liquid nitrogen. Twenty μg of total RNA was loaded in each sample lane. (CK, control)
For fungal infection and chemical treatments, SMF3 sunflower plants were planted in four-inch pots and grown in greenhouse for the first four weeks. After transfer to the growth chamber, the plants were maintained under 12-hour photoperiod at 22° C. with an 80% relative humidity. Six-week old plants were inoculated with Sclerotinid-infected carrot plugs or sprayed with an aqueous solution of either 5 mM oxalic acid, 5 mM H2O2, 5 mM salicylic acid or 45 μM jasmonic acid (with 0.1% ethanol). For each plant, three petioles were inoculated and wrapped with a 1 inch×2 inch piece of parafilm. Plant tissue samples were harvested at different time points and immediately frozen in liquid nitrogen and then stored at −80° C.
Plant materials were ground in liquid nitrogen, and total RNA was extracted by the Tri-Reagent method. RNA profiling was conducted using CuraGen Corporation's proprietary method sold under the trademark GENECALLING. See U.S. Pat. No. 5,871,697, herein incorporated by reference. Profiles of RNA samples prepared from combined leaf and stem tissues of six-week-old oxox sunflower plants were compared to profiles of similar RNA samples from of six-week-old SMF3 plants.
Total RNA (20 μg) was separated in a 1% agarose gel containing formaldehyde. Ethidium bromide was included to verify equal loading of RNA. After transfer onto Hybond N+membrane, the blots were hybridized with ^32P-labeled NCE, AAP, or GRP cDNA probes. As a control, a duplicate blot was hybridized with a probe complementary to 18S rRNA. Hybridization and washing conditions were performed according to Church et al. ((1984) Proc. Natl. Acad. Sci. USA 81:1991-1995).

SMILES | NCE gene expression (transcript level, Northern blot)
OO [H2O2] | negatively regulated; also recorded: down-regulated
CC/C=C\C[C@H]1C(=O)CC[C@@H]1CC(=O)O [jasmonic acid] | negatively regulated; also recorded: down-regulated
O=C(O)C(=O)O [oxalic acid] | negatively regulated
O=C(O)c1ccccc1O [salicylic acid] | negatively regulated; also recorded: down-regulated

— patent publication US6630615B1, “Defense-related signaling genes and methods of use” (Pioneer Hi-Bred International, Inc., priority 1999, dated 2003)
